Source: publication PMC7641245 (Chemical communications (Cambridge, England), 2020)

Biological target: T1, hIAPP (human islet amyloid polypeptide) (Homo sapiens, UniProt P10997)
T1 sequence (P10997 34-70): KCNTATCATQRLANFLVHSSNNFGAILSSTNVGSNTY
Test: isothermal titration calorimetry
Assay type: binding
Conditions: hIAPP fibers; no interaction seen by ITC with hIAPP monomers

CurDAc
Kd: ~7 µM
